Read-outs that look alike come from different tables or passages of the source.
What was measured:
[1] = target: T1, MshC D251N mutant (Mycolicibacterium smegmatis, UniProt A0QZY0, D251N); experiment: Pre-steady state kinetics of cysteine adenylation; assay type: biochemical, Mycobacterium smegmatis; settings: read-out: Kd-ATP; first half reaction, fit to eq 9
[2] = target: T2, MshC W227H mutant (Mycolicibacterium smegmatis, UniProt A0QZY0, W227H)
[3] = target: T3, MshC T46V mutant (Mycolicibacterium smegmatis, UniProt A0QZY0, T46V)
[4] = target: T4, WT MshC (Mycolicibacterium smegmatis, UniProt A0QZY0); settings: up to 10 mM ATP; cited from earlier work
T4 sequence (A0QZY0 1-412): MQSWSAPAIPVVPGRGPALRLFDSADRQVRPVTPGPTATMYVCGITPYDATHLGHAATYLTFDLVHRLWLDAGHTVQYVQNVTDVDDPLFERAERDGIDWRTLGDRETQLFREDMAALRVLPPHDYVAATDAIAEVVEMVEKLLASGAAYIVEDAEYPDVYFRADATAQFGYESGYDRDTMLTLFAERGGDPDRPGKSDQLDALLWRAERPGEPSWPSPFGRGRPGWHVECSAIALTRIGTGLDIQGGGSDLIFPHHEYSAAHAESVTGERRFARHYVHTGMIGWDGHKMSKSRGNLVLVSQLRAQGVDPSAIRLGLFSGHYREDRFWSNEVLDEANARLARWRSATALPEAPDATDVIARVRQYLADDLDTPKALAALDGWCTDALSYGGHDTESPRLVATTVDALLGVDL

[5] = target: MshC T83V mutant (Mycolicibacterium smegmatis, UniProt A0QZY0, T83V); assay type: biochemical, Mycobacterium smegmatis
[6] = target: T4, WT MshC; experiment: Coupled spectrophotometric enzyme assay; assay type: biochemical, Mycobacterium smegmatis; settings: for Km: steady state, pH 7.8, 25 °C
[7] = target: T5, MshC D251A mutant (Mycolicibacterium smegmatis, UniProt A0QZY0, D251A)
[8] = target: T6, MshC W227F mutant (Mycolicibacterium smegmatis, UniProt A0QZY0, W227F)
[9] = target: T7, MshC H55A mutant (Mycolicibacterium smegmatis, UniProt A0QZY0, H55A); experiment: Pre-steady state kinetics of cysteine adenylation; assay type: biochemical, Mycobacterium smegmatis; settings: read-out: Kd-ATP; first half reaction, fit to eq 9
[10] = target: T1, MshC D251N mutant
[11] = target: T4, WT MshC; experiment: Pre-steady state kinetics of cysteine adenylation; assay type: biochemical, Mycobacterium smegmatis
[12] = target: T7, MshC H55A mutant; settings: for Km: steady state, pH 7.8, 25 °C
[13] = target: T3, MshC T46V mutant; experiment: Tryptophan fluorescence titration of inhibitor binding; design: species or system Mycobacterium smegmatis; settings: fluorescence method, 0.1 μM protein, pH 7.8, 25 °C
[14] = target: T5, MshC D251A mutant; experiment: as above; design: species or system Mycobacterium smegmatis; settings: fluorescence method, 0.1 μM protein, pH 7.8, 25 °C
[15] = target: T4, WT MshC; experiment: as above; design: species or system Mycobacterium smegmatis; settings: fluorescence method, 0.1 μM protein, pH 7.8, 25 °C
[16] = target: T6, MshC W227F mutant; experiment: as above; design: species or system Mycobacterium smegmatis; settings: fluorescence method, 0.1 μM protein, pH 7.8, 25 °C
[17] = target: T7, MshC H55A mutant; experiment: as above; design: species or system Mycobacterium smegmatis; settings: fluorescence method, 0.1 μM protein, pH 7.8, 25 °C
[18] = target: T1, MshC D251N mutant; experiment: as above; design: species or system Mycobacterium smegmatis; settings: fluorescence method, 0.1 μM protein, pH 7.8, 25 °C
[19] = target: T2, MshC W227H mutant; experiment: as above; design: species or system Mycobacterium smegmatis; settings: fluorescence method, 0.1 μM protein, pH 7.8, 25 °C
[20] = target: T3, MshC T46V mutant; experiment: Pre-steady state kinetics of cysteine adenylation; assay type: biochemical, Mycobacterium smegmatis
[21] = target: T6, MshC W227F mutant; experiment: Pre-steady state kinetics of cysteine adenylation; assay type: biochemical, Mycobacterium smegmatis
[22] = target: T4, WT MshC; experiment: Effect of added imidazole on enzyme activity; assay type: biochemical, Mycobacterium smegmatis
[23] = target: MshC H55A (Mycolicibacterium smegmatis, UniProt A0QZY0, H55A); experiment: Chemical rescue of enzyme activity by exogenous imidazole; assay type: biochemical, Mycobacterium smegmatis
[24] = read-out: Km-ATP, steady state, pH 7.8, 25 °C
[25] = read-out: Km-GlcN-Ins, at fixed saturating concentrations of ATP and cysteine
[26] = read-out: Km-cys, steady state, pH 7.8, 25 °C

For `Nc1ncnc2c1ncn2[C@@H]1O[C@H](COP(=O)(O)OP(=O)(O)OP(=O)(O)O)[C@@H](O)[C@H]1O` [ATP], the Kd [1] was 10200 ± 2800 µM, the Km [2, 24] was 120 ± 10 µM and the Km [3, 24] was 1100 ± 30 µM. For the same compound, the substrate inhibition [4] was “no substrate inhibition”, the Km [5, 24] was 320 ± 60 µM and the Km ([6]; read-out: Km-ATP) was 1800 ± 100 µM. The “ATP concentration above which enzyme activity decreases” value ([7]; 2 mM cysteine, 200 μM GlcN-Ins) was ~ 1.1 mM, the Km [7, 24] was 360 ± 11 µM and the Km [8, 24] was 200 ± 50 µM. For the same compound, the Kd [9] was 15000 ± 3000 µM, the Km [10, 24] was 8900 ± 1600 µM and the substrate inhibition ([10]; up to 20 mM ATP) was “not observed”. For the same compound, the Kd ([11]; read-out: Kd-ATP, first half reaction, fit to eq 9) was 1700 ± 200 µM and the Km ([12]; read-out: Km-ATP) was 5200 ± 100 µM.
In the case of `Nc1ncnc2c1ncn2[C@@H]1O[C@H](COS(=O)(=O)NC(=O)[C@@H](N)CS)[C@@H](O)[C@H]1O` [CSA, 5'-O-[N-(L-cysteinyl)-sulfamonyl]adenosine, reference compound], the Ki [2] is reported as 0.03 ± 0.005 µM, the Ki [3] is reported as 0.36 ± 0.047 µM and the Kd [13] is reported as 0.15 ± 0.01 µM. For the same compound, the Kd [14] was 0.34 ± 0.01 µM, the Ki [6] was 0.304 ± 0.04 µM and the Kd [15] was 0.11 ± 0.01 µM. For the same compound, the Ki [7] was 0.93 ± 0.17 µM, the Ki [8] was 0.056 ± 0.008 µM and the Kd [16] was 0.053 ± 0.01 µM. The Ki [10] was 0.52 ± 0.11 µM, the Kd [17] was 0.35 ± 0.02 µM and the Kd [18] was 0.18 ± 0.013 µM. It also gave a Kd [19] of 0.045 ± 0.002 µM and a Ki [12] of 0.89 ± 0.06 µM.
For `N[C@H]1[C@@H](OC2[C@H](O)[C@H](O)C(O)[C@H](O)[C@H]2O)O[C@H](CO)[C@@H](O)[C@@H]1O` (stereo partly shown) [GlcN-Ins, glucosamine-inositol], the Km [2, 25] was 600 ± 10 µM, the Km [3, 25] was 150 ± 80 µM and the Km [5, 25] was 170 ± 50 µM. For the same compound, the Km ([6]; read-out: Km-GlcN-Ins) was 160 ± 50 µM, the Km [7, 25] was 160 ± 10 µM and the Km [8, 25] was 150 ± 60 µM. It also gave a Km [10, 25] of 100 ± 60 µM.
`N[C@@H](CS)C(=O)O` [cys, L-cysteine] gave a Km [2, 26] of 120 ± 40 µM, a Kd [20] of 800 ± 100 µM and a Km [3, 26] of 1900 ± 200 µM. It also gave a Km [5, 26] of 20 ± 1 µM, a Km [7, 26] of 170 ± 20 µM and a Km [8, 26] of 400 ± 100 µM. It also gave a Kd [21] of 600 ± 100 µM, a Km [10, 26] of 480 ± 150 µM and a Kd [11] of 160 ± 30 µM. It also gave a Km ([12]; read-out: Km-cys) of 1100 ± 200 µM.
With `c1c[nH]cn1` [imidazole] the “effect of added imidazole on enzyme activity” value [22] was “No significant activating or inhibitory effect”, the “increase of kcat value” ([23]; 100 mM added imidazole, pH 6.75) was “seven-fold increase” and the “change in enzyme activity upon addition of imidazole” value ([23]; pH 7.8 and pH 9) was “no changes”.
With `N[C@@H](CO)C(=O)O` [serine] the activity as substrate ([6]; tested up to 5 mM) was “no activity”.

Source: article PMC2748416 (Biochemistry, 2009)
